Molecules are shown by their SMILES.

For test [1], the target named is T1, mannose-binding protein (MBP) (Rattus norvegicus, UniProt P19999).
T1 construct: made in house; host or cells: E. coli JA221
Description: Binding of AMM to mannose-binding protein (previously determined binding constant, used for the bound fraction). As to conditions: 1 mM MBP-A, 1 mM AMM; calculated from dissociation constant and concentrations. From the text: Interpretation of residual dipolar contributions of a ligand in a protein-bound state will, in general, require separation of the contribution from the free state using known binding properties. The observed residual dipolar couplings measured in the AMM/MBP complex (Table 2, Dobs) will be a population weighted average from the free (Nfree) and bound (Nbound) states, such that: Dobs=NfreeDfree+NboundDbound (1) The fraction of AMM free and bound (Nfree and Nbound) can be calculated from the dissociation constant and known protein-ligand concentrations. Using a previously determined binding constant (approx. 1 mM) approximately 40% of AMM is in fact bound to MBP leaving approximately 60% of AMM free in solution. Order Tensor Calculation in AMM

For test [2], the target named is T1, mannose-binding protein (MBP). To be noted: AMM/MBP, previously determined; read-out: binding constant; cited from earlier work.
Test [3] deals with T2, GnT-V (Homo sapiens, UniProt Q09328).
T2 construct: The soluble form of recombinant human GnT-V was expressed in CHO cells; made in house; host or cells: CHO cells
T2 sequence (Q09328 31-741 limits assumed): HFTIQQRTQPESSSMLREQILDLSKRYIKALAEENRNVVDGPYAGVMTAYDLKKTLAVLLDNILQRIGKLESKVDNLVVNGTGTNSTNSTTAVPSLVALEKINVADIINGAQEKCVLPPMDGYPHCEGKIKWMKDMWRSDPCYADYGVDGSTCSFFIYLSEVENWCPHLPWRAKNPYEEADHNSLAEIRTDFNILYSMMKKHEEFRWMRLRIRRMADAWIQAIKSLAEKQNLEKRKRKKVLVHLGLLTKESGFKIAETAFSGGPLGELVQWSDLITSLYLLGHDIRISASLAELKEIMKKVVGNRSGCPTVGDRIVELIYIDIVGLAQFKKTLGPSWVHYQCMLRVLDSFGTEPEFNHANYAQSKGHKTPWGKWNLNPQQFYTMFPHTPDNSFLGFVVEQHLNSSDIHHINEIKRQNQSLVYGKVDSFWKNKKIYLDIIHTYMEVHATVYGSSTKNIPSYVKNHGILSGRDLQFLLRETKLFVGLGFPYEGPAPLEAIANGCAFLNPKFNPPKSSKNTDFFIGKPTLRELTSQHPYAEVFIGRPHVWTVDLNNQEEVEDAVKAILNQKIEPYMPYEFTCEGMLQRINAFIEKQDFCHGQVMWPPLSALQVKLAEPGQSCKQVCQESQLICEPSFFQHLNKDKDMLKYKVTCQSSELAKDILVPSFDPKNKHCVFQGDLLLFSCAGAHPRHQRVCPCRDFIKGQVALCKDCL
To be noted: cited from earlier work; for Kd: GnT-V, known binding constant.

Consider `COC1O[C@H](CO)[C@@H](O)[C@H](O)[C@@H]1O` (stereo partly drawn) [AMM, α-methyl mannoside], for which the “fraction of AMM bound to MBP” value in test [1] is reported as “approximately 40%”. Further, the Kd in test [2] is ~1 mM. Turning to `O=c1ccn([C@@H]2O[C@H](COP(=O)(O)OP(=O)(O)O)[C@@H](O)[C@H]2O)c(=O)[nH]1` [UDP, uridine diphosphate], in test [3], the Kd is 1.1 mM and the “type of inhibition of GnT-V” value is listed as “competitive inhibitor”. Take `CC(=O)N[C@H]1[C@@H](OP(=O)(O)OP(=O)(O)OC[C@H]2O[C@@H](n3ccc(=O)[nH]c3=O)[C@H](O)[C@@H]2O)O[C@H](CO)[C@@H](O)[C@@H]1O` [UDP-GlcNAc]: the Kd in test [3] was 1.1 mM.

These data come from patent US7146277B2, “NMR assisted design of high affinity ligands for structurally uncharacterized proteins” (priority 2000, dated 2006).
